pEC50, pIC50: −log10 of the molar value.
Key:
mice = assay: High-dose subcutaneous mouse toxicity studies, CNS-related findings; settings: for CNS toxicity in high-dose mouse toxicity studies: single 2000 mg/kg and/or escalating doses 100, 450, 2000 mg/kg, in words
Description: Each compound was tested in a single dose at 2000 mg/kg, and at escalating doses (100, 450, and 2000 mg/kg).

AMPA-R = assay: [3H]AMPA radioligand binding assay on rat brain synaptic membranes; settings: for % Inhibition @ Concentration 100 uM: Table 8 (3′-terminal nucleobase/sugar variants); for % Inhibition @ Concentration 0.1 uM: Table 8, 0.1 uM; for % Inhibition @ Concentration 1 uM: Table 8, 1 uM; for % Inhibition @ Concentration 10 uM: Table 8, 10 uM;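 on all read-outs here: competition binding in which test compounds at rising concentrations displace [3H]AMPA from AMPA-R on rat brain synaptic membranes, with reduced bound radioligand as read-out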
Description: The activity of anti-miR-17 compounds was evaluated in a radioligand binding assay which measured the binding of the [^3H] AMPA ligand to the AMPA-R present on rat brain synaptic membranes, in the presence of increasing concentrations of anti-miR-17 compound, anti-miR-17 compounds with affinity for the AMPA-R will bind to and compete with the binding of the [^3H] AMPA ligand.
5.0 nM of the ligand [^3H] AMPA, 1.0 mM of the non-specific ligand L-Glutamic acid, and anti-miR compound at uM concentrations were incubated with synaptic membranes prepared from Wistar rat cerebral cortex for 90 minutes.
The compounds were tested in the radioligand binding assay described herein, to determine the ability of the anti-miR-17 compounds to and compete with the binding of the [3H] AMPA ligand.

miR-17 [1] = assay: miR-17 luciferase sensor assay in HeLa cells; format: cell-based; settings: for pEC50: HeLa cells, 18- to 24-hour transfection
Description: The in vitro potency of certain compounds was evaluated using a miR-17 luciferase sensor assay which uses a luciferase reporter vector for miR-17, with two fully complementary miR-17 binding sites in tandem in the 3′-UTR of the luciferase gene. HeLa cells were co-transfected with the luciferase reporter vector and an exogenous miR-17-expression vector that acted to repress the luciferase signal.

miR-17 [2] = assay: miR-17 PD-Sig in human kidney cell lines; format: cell-based
AMPA-R (GluA1/GluA4) = molecular target: T1, AMPA-R (GluA1/GluA4) (Homo sapiens, UniProt P42261+P48058); assay: Manual whole-cell patch clamp, ChanTest GluA1/GluA4 EZCells; format: cell-based
T1 construct: host or cells: ChanTest GluA1/GluA4 EZCells
Description: To evaluate functional antagonism of anti-miR-17 oligonucleotides towards the AMPA-R, certain oligonucleotides were tested using the manual whole-cell patch clamp technique, which records membrane currents as a measure of AMPA-R activity.
Manual whole-cell patch clamp studies were performed by Metrion Biosciences (Cambridge, UK). Whole-cell voltage clamp experiments were performed at room temperature (18-21° C.) using an EPC10 patch clamp amplifier using Patchmaster software (HEKA Elektronik). Glass patch pipettes were fabricated from borosilicate glass capillaries (Harvard Apparatus) to resistances between 1.4 and 2.5 MΩ. Membrane currents were recorded using the whole-cell patch clamp technique. ChanTest® GluA1/GluA4 EZCells were clamped at a holding potential of −80 mV and membrane currents elicited by 10 μM(S)-AMPA delivered using a VC38 perfusion system (ALA Scientific Instruments). The […] current amplitude values were measured with each application of 10 μM(S)-AMPA. The fractional change of current amplitude produced by each concentration of compound was calculated relative to the control current (pre-compound) and expressed as percentage change (% inhibition) for each cell. RGLS4326 was tested in a separate study from all other compounds in Table 6.

[3] = tested on: KspCre/Pkd1F/RC (Pkd1-F/RC) mice; assay: Efficacy in Pkd1-F/RC mouse model of ADPKD; format: in vivo; settings: 20 mg/kg SC on days 8, 10, 12, 15 of age; for Mean BW/KW Ratio / Mean Serum BUN / Mean Serum Creatine: sacrificed at 18 days
Description: Mice were sacrificed at 18 days of age, and kidney weight, body weight, cyst index, serum creatinine level, and blood urea nitrogen (BUN) level were measured. BUN level is a marker of kidney function. A higher BUN level correlates with poorer kidney function, thus a reduction in BUN level is an indicator of reduced kidney injury and damage and improved function. Statistical significance was calculated by one-way ANOVA with Dunnett's multiple correction.

miR-17 [4] = assay: microRNA polysome shift assay (miPSA) in kidney of wild type mice; format: in vivo, mouse; parameters: scale not given here; settings: seven days later
Description: In vivo potency was evaluated using the microRNA polysome shift assay (miPSA). This assay was used to determine the extent to which compounds directly engage the miR-17 target in the kidney in normal and PKD mice. The miPSA relies on the principle that active miRNAs bind to their mRNA targets in translationally active high molecular weight (HMW) polysomes, whereas the inhibited miRNAs reside in the low MW (LMW) polysomes. Treatment with anti-miR results in a shift of the microRNA from HMW polysomes to LMW polysomes. Thus, the miPSA provides a direct measurement of microRNA target engagement by a complementary anti-miR (Androsavich et al., Nucleic Acids Research, 2015, 44: e13).
Wild type mice were administered a single dose of 0.3 mg/kg, 3 mg/kg, or 30 mg/kg. Kidney tissue was collected seven days later and subjected to the miPSA. The mean displacement score for each treatment is shown in Table 15 (PBS, n=17; RGLS4326 30 mg/kg, n=10; all other treatments, n=4-5). The tested oligonucleotides displaced miR-17 from translationally active polysome (as measured by miPSA) in normal mouse kidneys.

miR-17 [5] = assay: miR-17 PD-Sig in mouse kidney cell lines; format: cell-based
Description: The activity of certain compounds was evaluated using a mouse miR-17 Pharmacodynamic-Signature (miR-17 PD-Sig), which consists of the expression of 18 unique miR-17 target genes normalized by six reference housekeeping genes, to provide an unbiased and comprehensive assessment of miR-17 activity. The mouse miR-17 PD-Sig score was the calculated average of the 18 genes' individual log 2 fold changes (normalized by six housekeeping genes) compared to mock transfection (Lee et al., Nat. Commun., 2019, 10, 4148).
The PD-Sig for RGLS4326 in mIMCD3 cells (77.2, indicated by “*”) was not generated in this experiment; the value in Table 14 is that reported by Lee et al., Nat. Commun., 2019, 10, 4148. Blank cells in the table indicate that a compound was not tested in a particular cell line.

T1 sequence (P42261 19-906): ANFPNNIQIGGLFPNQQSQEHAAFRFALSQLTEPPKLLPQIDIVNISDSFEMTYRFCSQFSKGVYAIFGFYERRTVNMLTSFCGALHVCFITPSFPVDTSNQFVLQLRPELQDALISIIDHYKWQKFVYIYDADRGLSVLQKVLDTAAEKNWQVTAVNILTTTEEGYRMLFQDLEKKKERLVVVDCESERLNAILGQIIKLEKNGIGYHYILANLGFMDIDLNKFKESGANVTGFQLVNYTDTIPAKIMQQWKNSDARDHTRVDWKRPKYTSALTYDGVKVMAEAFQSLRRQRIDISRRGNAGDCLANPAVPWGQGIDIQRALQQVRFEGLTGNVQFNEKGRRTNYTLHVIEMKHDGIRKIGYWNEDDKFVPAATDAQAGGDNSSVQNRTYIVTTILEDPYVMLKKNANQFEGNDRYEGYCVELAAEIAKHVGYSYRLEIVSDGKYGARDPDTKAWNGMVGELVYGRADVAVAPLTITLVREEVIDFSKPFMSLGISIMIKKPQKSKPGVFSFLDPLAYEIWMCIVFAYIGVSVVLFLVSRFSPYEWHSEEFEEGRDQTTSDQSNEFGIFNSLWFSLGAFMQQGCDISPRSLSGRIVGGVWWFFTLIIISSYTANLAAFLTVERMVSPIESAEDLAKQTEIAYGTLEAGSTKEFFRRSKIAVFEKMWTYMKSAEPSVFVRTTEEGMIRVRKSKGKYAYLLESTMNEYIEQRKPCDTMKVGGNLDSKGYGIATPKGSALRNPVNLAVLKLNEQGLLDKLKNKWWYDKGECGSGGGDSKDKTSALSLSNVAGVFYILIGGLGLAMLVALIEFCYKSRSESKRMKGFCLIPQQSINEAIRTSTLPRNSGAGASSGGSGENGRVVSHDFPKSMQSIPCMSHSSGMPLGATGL
T1 sequence (P48058 21-902): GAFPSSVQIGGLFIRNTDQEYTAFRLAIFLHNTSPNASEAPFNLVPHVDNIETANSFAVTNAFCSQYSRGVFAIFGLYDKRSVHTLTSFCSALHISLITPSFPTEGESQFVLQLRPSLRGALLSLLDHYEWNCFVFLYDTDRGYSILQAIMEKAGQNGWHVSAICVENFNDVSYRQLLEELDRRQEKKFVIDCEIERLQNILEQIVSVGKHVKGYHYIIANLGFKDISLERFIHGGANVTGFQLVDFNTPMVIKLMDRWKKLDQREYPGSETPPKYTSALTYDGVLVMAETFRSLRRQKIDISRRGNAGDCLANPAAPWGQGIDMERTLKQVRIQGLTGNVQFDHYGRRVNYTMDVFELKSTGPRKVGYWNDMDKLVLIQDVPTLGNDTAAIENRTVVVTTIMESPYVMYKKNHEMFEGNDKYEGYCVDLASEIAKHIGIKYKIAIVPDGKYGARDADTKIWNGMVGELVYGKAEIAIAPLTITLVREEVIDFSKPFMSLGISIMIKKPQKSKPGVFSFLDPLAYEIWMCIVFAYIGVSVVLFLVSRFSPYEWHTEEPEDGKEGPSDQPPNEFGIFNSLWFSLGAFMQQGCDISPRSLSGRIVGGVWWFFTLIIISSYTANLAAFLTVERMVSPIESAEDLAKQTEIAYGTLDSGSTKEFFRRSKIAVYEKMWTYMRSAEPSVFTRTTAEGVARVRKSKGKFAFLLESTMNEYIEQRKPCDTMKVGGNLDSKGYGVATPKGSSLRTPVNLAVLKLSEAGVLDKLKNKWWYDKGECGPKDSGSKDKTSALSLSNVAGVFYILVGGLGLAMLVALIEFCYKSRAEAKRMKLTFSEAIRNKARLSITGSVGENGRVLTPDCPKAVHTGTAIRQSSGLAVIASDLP

| Sequence | CNS toxicity in high-dose mouse toxicity studies (mice) | pIC50 (AMPA-R; Experiment #2) | % Inhibition @ 0.1 uM (AMPA-R; Experiment #2, 0.1 uM) [%] | % Inhibition @ 1 uM (AMPA-R; Experiment #2, 1 uM) [%] | % Inhibition @ 10 uM (AMPA-R; Experiment #2, 10 uM) [%] | % Inhibition @ 100 uM (AMPA-R; Experiment #2, 100 uM) [%] | pIC50 (AMPA-R; Table 8) | % Inhibition @ Concentration 100 uM (AMPA-R) [%] | % Inhibition @ Concentration 0.1 uM (AMPA-R) [%] | % Inhibition @ Concentration 1 uM (AMPA-R) [%] | % Inhibition @ Concentration 10 uM (AMPA-R) [%] | Log2FC (37.5 nM) (miR-17 [1]) | pEC50 (miR-17 [1]) | pEC50 (miR-17 [2]; HK-2, human, Normal) | pEC50 (miR-17 [2]; WT9-7, human, PKD) | % Inhibition on membrane currents evoked with 10 uM (s)-AMPA (Mean ± SD) (AMPA-R (GluA1/GluA4); 0.3 uM compound) [%] | % Inhibition on membrane currents evoked with 10 uM (s)-AMPA (Mean ± SD) (AMPA-R (GluA1/GluA4); 3 uM compound) [%] | BW/KW Ratio, Mean Difference vs. PBS [3] | Serum BUN, Mean Difference vs. PBS [3] | Serum Creatine, Mean Difference vs. PBS [3] | further results |
| --- | --- | --- | --- | --- | --- | --- | --- | --- | --- | --- | --- | --- | --- | --- | --- | --- | --- | --- | --- | --- | --- |
| ASGSCMAFCFUFUMUSAS [RG-NG-1015] | no CNS-toxicity were observed | < 4.00 | 2.3 | 11 | 6.5 | 19.9 | ≤ 4.00 | 5.6 | −0.8 | −10.3 | −7 | 2.51 | 7.65 | 7.25 | 7.67 | 16.0 ± 5.0 | 39.5 ± 5.4 | −48.79 | −20.21 | −0.034 | CNS-related findings noted (mice; SC 2000 mg/kg, Single): No; CNS-related findings noted (mice; SC 100, 450, 2000 mg/kg/dose, QDx4): No; functional antagonism towards AMPA-R relative to RGLS4326 (AMPA-R (GluA1/GluA4); in words): reduced functional antagonism towards AMPA-R; Mean BW/KW Ratio [3]: 16.83; Mean Serum BUN [3]: 22.26; Mean Serum Creatine [3]: 0.1279; miPSA Displacement Score, Mean (miR-17 [4]; single dose 3 mg/kg): 2.562; miPSA Displacement Score, Mean (miR-17 [4]; single dose 30 mg/kg): 2.718; miPSA Displacement Score, Mean (miR-17 [4]; single dose 0.3 m/kg): 2.238; pEC50 (miR-17 [5]; D52B5, mouse, PKD): 7.08; pEC50 (miR-17 [5]; mIMCD3, mouse, Normal): 6.77 |
| ASGSCMAFCFUFUMUSGS [RGLS4326, reference compound] | ataxia, lethargy, and in the case of RGLS4326, unconsciousness at the highest dose | 6.57 | 31.5 | 73.1 | 93.6 | 96.8 | 5.79 | 99.7 | −0.1 | 40.8 | 83.5 | 2.70 | 7.73 | 7.32 | 7.76 | 46.9 ± 9.8 | 87.4 ± 7.9 | −48.8 | −20.06 | −0.03463 | pIC50 (AMPA-R; Experiment #1): 6.15; % Inhibition @ 0.1 uM (AMPA-R; Experiment #1, 0.1 uM): 17.6%; % Inhibition @ 1 uM (AMPA-R; Experiment #1, 1 uM): 55.5%; % Inhibition @ 10 uM (AMPA-R; Experiment #1, 10 uM): 93%; % Inhibition @ 100 uM (AMPA-R; Experiment #1, 100 uM): 104.1%; pIC50 (AMPA-R; Experiment #3): 6.11; % Inhibition @ 0.1 uM (AMPA-R; Experiment #3, 0.1 uM): 14.6%; % Inhibition @ 1 uM (AMPA-R; Experiment #3, 1 uM): 55.8%; % Inhibition @ 10 uM (AMPA-R; Experiment #3, 10 uM): 89%; % Inhibition @ 100 uM (AMPA-R; Experiment #3, 100 uM): 97.2%; Mean BW/KW Ratio [3]: 16.81; Mean Serum BUN [3]: 22.41; Mean Serum Creatine [3]: 0.1273; miPSA Displacement Score, Mean (miR-17 [4]; single dose 3 mg/kg): 2.247; miPSA Displacement Score, Mean (miR-17 [4]; single dose 30 mg/kg): 2.362; miPSA Displacement Score, Mean (miR-17 [4]; single dose 0.3 m/kg): 1.846; pEC50 (miR-17 [5]; D52B5, mouse, PKD): 7.03 |
